Source: PMC7188713, “Phase 1 study of napabucasin, a cancer stemness inhibitor, in patients with advanced solid tumors” (Cancer Chemotherapy and Pharmacology, 2020)

Tests used:
[1] = tested on: advanced solid tumors; assay: Antitumor activity (RECIST 1.1 tumor response, PFS, OS, STAT3 SNP genotype); assay type: in vivo, Japanese patients
Protocol: Assessments of antitumor activity were objective tumor response, median progression-free survival (PFS) and median overall survival (OS). Tumor response was evaluated according to RECIST 1.1 [21]. Median PFS was defined as the time from the day of the first dose of napabucasin to the date of progressive disease (PD), if neither was observed, the patient was to be censored at the last assessment of tumor response. Median OS was defined as the time from the first dose of napabucasin to the date of death from any cause. Patients who were still alive at the final observation were to be censored at the date they were last known to be alive. STAT3 single nucleotide polymorphism (SNP) genotyping was carried out using DNA extracted from whole blood samples to assess tumor response, median PFS, and median OS. Immunohistochemistry (IHC), mutation analysis (Oncomine Comprehensive Assay), and microsatellite instability analyses were performed in tumor tissue samples obtained from patients who provided additional consent to assess the relationship between specific biomarkers and the antitumor activity of napabucasin. IHC staining of phosphorylated STAT3 (pSTAT3) was carried out on archived tumor samples which were collected pre-treatment, and de novo lesions during and post-treatment were also collected, according to the protocol of a recent Phase 3 study. Positive pSTAT3 staining was defined as cancer cell nuclear staining ≥ 5% plus a stroma staining score of at least 2. The biomarker testing facility was responsible for IHC staining and storage of tumor samples. If consent to a genetic test was withdrawn, samples and associated analyses were discarded.
(§1) The safety and antitumor activity (intention-to-treat [ITT]) analysis populations included all patients that received at least one dose of napabucasin. The DLT analysis population included all patients that received at least one dose of napabucasin with at least 80% compliance ([number of capsules actually ingested/number of capsules that should have been ingested per dose […]] × 100) during the DLT evaluation period, and those patients who experienced DLT during the evaluation period regardless of compliance. The PK population included all patients that received at least one dose of napabucasin and had plasma napabucasin concentration data for at least one-time point after the first dose of napabucasin.

[2] = Phase 1 dose-escalation study: safety (DLT, MTD, adverse events); assay type: in vivo
Protocol: This Phase 1, open-label, dose-escalation study (3 + 3 design) was carried out at the National Cancer Center Hospital East in Japan. Patients received napabucasin 240 mg twice daily (BID) (Cohort 1), 480 mg BID (Cohort 2), or 720 mg BID (Cohort 3). Day 1 was defined as the day the first dose of napabucasin was administered. All patients were hospitalized until PK assessments were completed (Day 30), though patients were permitted to go/stay out during this period at the discretion of the investigators. […] Dose escalation would continue if no DLTs were observed, and if one of the first three patients experienced a DLT within the first cycle an additional three patients would be enrolled. Dose escalation would be halted if ≥ 2 of the first three patients (or ≥ 2 of the six patients, if additional patients were enrolled) experienced a DLT. If ≤ 1 of the patients in Cohort 3 (highest dose) experienced an observable DLT, then three additional patients were enrolled and would receive the highest dose level of napabucasin, and DLTs would be evaluated in the additional patients. Study treatment was given in 28-day cycles until disease progression or intolerable toxicity due to AEs.
Safety endpoints included AEs, drug-related AEs, vital signs, body weight, laboratory values, and 12-lead ECG. All details of AEs were recorded, including the severity of the event. The severity of AEs was classified according to CTCAE v4.0-JCOG. Napabucasin dose could be reduced or interrupted due to AEs if considered necessary by the investigators, and later reinstated if the AE recovered to Grade 2 or lower. It could also be permanently discontinued in patients who met the discontinuation criteria, which included AEs that rendered trial continuation difficult, aggravation of underlying disease, and withdrawal of consent. Body weight was measured at baseline and Day 29 of Cycle 2, and every 28 days in subsequent cycles. Vital signs were measured at baseline, Days 1, 2, 8, 15, and 22 of Cycle 1, Days 29, 36, 43, and 50 of Cycle 2, and every 28 days in subsequent cycles. 12-lead ECG was measured at baseline and Day 57 in Cycle 3, and every 28 days in subsequent cycles. Laboratory values were recorded at baseline, Days 8, 15, and 22 in Cycle 1, Days 29, 36, 43, and 50 in Cycle 2, and every 28 days in subsequent cycles.
as §1

[3] = all grades, all cohorts, 14 patients

With `CC(=O)c1cc2c(o1)C(=O)c1ccccc1C2=O` [napabucasin] the “Median OS” value ([1]; Cohort 1 (480 mg/day)) was 8.28 months, the “Median PFS” value ([1]; Cohort 1 (480 mg/day)) was 1.87 months and the “Median OS” value ([1]; Cohort 2 (960 mg/day)) was 5.03 months. For the same compound, the “Median PFS” value ([1]; Cohort 2 (960 mg/day)) was 1.76 months, the “Median OS” value ([1]; Cohort 3 (1440 mg/day)) was 5.68 months and the “Median PFS” value ([1]; Cohort 3 (1440 mg/day)) was 1.45 months. The “Antitumor activity by STAT3 SNP genotype” value ([1]; DNA from whole blood, G/G, C/C, C/G genotypes) was “no difference in antitumor activity between G/G, C/C, and C/G genotypes”, the “Median OS” value ([1]; ITT population) was 5.83 months and the “Median PFS” value ([1]; ITT population) was 1.71 months. For the same compound, the “Patients with progressive disease (PD)” value ([1]; RECIST 1.1, 14 patients) was 12 patients, the “Patients with stable disease (SD) as best overall tumor response” value ([1]; RECIST 1.1, 14 patients, both colorectal cancer) was “two” and the “Duration of SD” value ([1]; one patient in Cohort 1 (480 mg/day)) was 56 days. The “Duration of SD” value ([1]; one patient in Cohort 3 (1440 mg/day)) was 82 days, the “Proportion of patients who achieved SD” value ([1]; this study) was 14% and the “MTD (maximum tolerated dose)” value ([2]; 28-day cycles, BID dosing) was 1440 mg/day. The “Any drug-related adverse event, Grade 1” value ([2]; Cohort 1, 480 mg/day, n = 3) was 1 (33.3) Number of patients (%), the “Drug-related abdominal pain lower (Grade 1)” value ([2]; Cohort 1, 480 mg/day, n = 3) was 0 (0.0) Number of patients (%) and the “Drug-related anorexia, Grade 1” value ([2]; Cohort 1, 480 mg/day, n = 3) was 1 (33.3) Number of patients (%). The “Drug-related anorexia, Grade 2” value ([2]; Cohort 1, 480 mg/day, n = 3) was 0 (0.0) Number of patients (%), the “Drug-related anorexia, Grade 3” value ([2]; Cohort 1, 480 mg/day, n = 3) was 0 (0.0) Number of patients (%) and the “Drug-related diarrhea, Grade 1” value ([2]; Cohort 1, 480 mg/day, n = 3) was 1 (33.3) Number of patients (%). For the same compound, the “Drug-related nausea (Grade 1)” value ([2]; Cohort 1, 480 mg/day, n = 3) was 0 (0.0) Number of patients (%), the “Drug-related rash (Grade 1)” value ([2]; Cohort 1, 480 mg/day, n = 3) was 0 (0.0) Number of patients (%) and the “Drug-related urinary tract infection (Grade 1)” value ([2]; Cohort 1, 480 mg/day, n = 3) was 0 (0.0) Number of patients (%). The “Any drug-related adverse event, Grade 1” value ([2]; Cohort 2, 960 mg/day, n = 4) was 4 (100) Number of patients (%), the “Drug-related abdominal pain lower (Grade 1)” value ([2]; Cohort 2, 960 mg/day, n = 4) was 1 (25.0) Number of patients (%) and the “Drug-related anorexia, Grade 1” value ([2]; Cohort 2, 960 mg/day, n = 4) was 0 (0.0) Number of patients (%). For the same compound, the “Drug-related anorexia, Grade 2” value ([2]; Cohort 2, 960 mg/day, n = 4) was 0 (0.0) Number of patients (%), the “Drug-related anorexia, Grade 3” value ([2]; Cohort 2, 960 mg/day, n = 4) was 0 (0.0) Number of patients (%) and the “Drug-related diarrhea, Grade 1” value ([2]; Cohort 2, 960 mg/day, n = 4) was 3 (75.0) Number of patients (%). For the same compound, the “Drug-related nausea (Grade 1)” value ([2]; Cohort 2, 960 mg/day, n = 4) was 0 (0.0) Number of patients (%), the “Drug-related rash (Grade 1)” value ([2]; Cohort 2, 960 mg/day, n = 4) was 1 (25.0) Number of patients (%) and the “Drug-related urinary tract infection (Grade 1)” value ([2]; Cohort 2, 960 mg/day, n = 4) was 1 (25.0) Number of patients (%). The “Any drug-related adverse event, Grade 1” value ([2]; Cohort 3, 1440 mg/day, n = 7) was 4 (57.1) Number of patients (%), the “Any drug-related adverse event, Grade 2” value ([2]; Cohort 3, 1440 mg/day, n = 7) was 1 (14.3) Number of patients (%) and the “Any drug-related adverse event, Grade 3” value ([2]; Cohort 3, 1440 mg/day, n = 7) was 1 (14.3) Number of patients (%). For the same compound, the “Drug-related abdominal pain lower (Grade 1)” value ([2]; Cohort 3, 1440 mg/day, n = 7) was 0 (0.0) Number of patients (%), the “Drug-related anorexia, Grade 1” value ([2]; Cohort 3, 1440 mg/day, n = 7) was 0 (0.0) Number of patients (%) and the “Drug-related anorexia, Grade 2” value ([2]; Cohort 3, 1440 mg/day, n = 7) was 1 (14.3) Number of patients (%). The “Drug-related anorexia, Grade 3” value ([2]; Cohort 3, 1440 mg/day, n = 7) was 1 (14.3) Number of patients (%), the “Drug-related diarrhea, Grade 1” value ([2]; Cohort 3, 1440 mg/day, n = 7) was 4 (57.1) Number of patients (%) and the “Drug-related diarrhea, Grade 3” value ([2]; Cohort 3, 1440 mg/day, n = 7) was 1 (14.3) Number of patients (%). For the same compound, the “Drug-related nausea (Grade 1)” value ([2]; Cohort 3, 1440 mg/day, n = 7) was 4 (57.1) Number of patients (%), the “Drug-related rash (Grade 1)” value ([2]; Cohort 3, 1440 mg/day, n = 7) was 0 (0.0) Number of patients (%) and the “Drug-related urinary tract infection (Grade 1)” value ([2]; Cohort 3, 1440 mg/day, n = 7) was 0 (0.0) Number of patients (%). For the same compound, the “Initial onset of nausea, most frequently observed” value ([2]; after the first dose) was 1 to 14 days, the “Drug-related nausea, number of patients” value ([2]; all cohorts, 14 patients) was 4 n and the “Drug-related vomiting, number of patients” value ([2]; all cohorts, 14 patients) was 3 n. For the same compound, the “Drug-related anorexia, number of patients” value [2, 3] was 3 n, the “Drug-related diarrhea, number of patients” value [2, 3] was 9 n and the “Any drug-related adverse event, Grade 1” value ([2]; human, in vivo) was 9 (64.3) Number of patients (%). The “Any drug-related adverse event, Grade 2” value ([2]; human, in vivo) was 1 (7.1) Number of patients (%), the “Any drug-related adverse event, Grade 3” value ([2]; human, in vivo) was 1 (7.1) Number of patients (%) and the “Drug-related abdominal pain lower (Grade 1)” value ([2]; human, in vivo) was 1 (7.1) Number of patients (%). For the same compound, the “Drug-related anorexia, Grade 1” value ([2]; human, in vivo) was 1 (7.1) Number of patients (%), the “Drug-related anorexia, Grade 2” value ([2]; human, in vivo) was 1 (7.1) Number of patients (%) and the “Drug-related anorexia, Grade 3” value ([2]; human, in vivo) was 1 (7.1) Number of patients (%). For the same compound, the “Drug-related diarrhea, Grade 1” value ([2]; human, in vivo) was 8 (57.1) Number of patients (%), the “Drug-related diarrhea, Grade 3” value ([2]; human, in vivo) was 1 (7.1) Number of patients (%) and the “Drug-related nausea (Grade 1)” value ([2]; human, in vivo) was 4 (28.6) Number of patients (%). For the same compound, the “Drug-related rash (Grade 1)” value ([2]; human, in vivo) was 1 (7.1) Number of patients (%), the “Drug-related urinary tract infection (Grade 1)” value ([2]; human, in vivo) was 1 (7.1) Number of patients (%) and the “Drug-related vomiting (Grade 1)” value ([2]; human, in vivo) was 3 (21.4) Number of patients (%). For the same compound, the “Initial onset of diarrhea and vomiting, most frequently observed” value ([2]; human, in vivo) was 1 to 7 days, the “Patients who experienced drug-related AEs” value ([2]; human, in vivo) was 11 patients and the “Patients with AEs reported” value ([2]; human, in vivo) was 14 patients. For the same compound, the “Dose reductions due to AEs” value ([2]; in vivo) was “no dose reductions due to AEs”, the “Patients with dose interruptions due to AEs” value ([2]; in vivo) was “five” and the “Deaths due to AEs” value ([2]; n = 14) was “No patients died due to AEs”.
